In US4570005A, “Process for the preparation of 2-arylpropyl ether or thioether derivatives” (priority 1980, dated 1986) one finds mortality and LD50 data, which are given here for 18 compounds.

Bounds are passed on as bounds.

Data set [1] has as its system tobacco cutworm. The data set can be described thus: Test 1: Effect on Tobacco Cutworm (leaf immersion), mortality after 24 hours. The class given is in vivo. The settings on record: second-instar larvae, 25° C. The procedure:
(§1) To a mixture of 20 parts of the compound of the present invention and 20 parts of Sorpol SM-200 (registered tradename for the product supplied by Toho Chemical Industrial Co., Ltd.) was added 60 parts of xylol, and the mixture was suffciently blended. The obtained emulsifiable concentrate was diluted at a predetermined concentration with distilled water, and the obtained dilution was used.
An emulsifiable concentrate of a test compound prepared according to the method described in Formulation Example 1 was diluted to a concentration of 100 or 20 ppm. Sweet-potato leaves were immersed in the dilution for 10 seconds, air-dried and placed in a plastic cup having a diameter of 10 cm. Then second-instar larvae of tobacco cutworm were set free in the cup. The cup was allowed to stand still in a thermostat chamber maintained at 25° C. After 24 hours, the numbers of killed and living larvae were counted and the mortality was calculated. The obtained result was expressed by an average value obtained from the mortality calculated in three test cups.

Data set [2] can be described thus: Test 9: Toxicity Test (acute oral toxicity, mice). The settings on record: mouse, in vivo, po. The procedure: A predetermined amount of a solution or suspension of a test compound in corn oil was orally administered to male mice having a body weight of 19 to 23 g (0.2 ml per 10 g of the body weight). After 7 days, the number of killed mice was counted and the influences on the mice were examined.

For data set [3], the system named is sensitive green rice leafhopper (collected at Chigasaki). The data set can be described thus: whole plant or invertebrate. The class given is in vivo. As to conditions: Nephotettix cincticeps, sensitive female adults, 24 hours, read-out: Mortality (%), Green Rice Leafhopper Collected at Chigasaki. The procedure: as §1
(§2) Seedlings (having 2 to 3 leaves) of paddy rice were hydroponically cultured in a pot having a diameter of 5 cm. A chemical dilution having a concentration of 100 or 20 ppm, prepared in the same manner as described in Test 1, was applied with a sprayer at a rate of 3 ml per pot. The treated seedlings were air-dried and covered with a metal net cylinder, and female adults of resistant green rice leafhopper (collected at Nakagawara) and sensitive green rice leafhopper (collected at Chigasaki) were set, respectively, free in the pot at a density of 10 adults per pot. After 24 hours, the numbers of killed and living adults were counted and the mortality was calculated. The test was made on three pots and the average value was calculated.

The test system of data set [4] is resistant green rice leafhopper (collected at Nakagawara). The data set can be described thus: Test 3: Effect on Resistant Green Rice Leafhopper (collected at Nakagawara). The format is in vivo, Nephotettix cincticeps Uhler (Green rice leafhopper). The settings on record: Nephotettix cincticeps, 24 h, read-out: Mortality (%), Green Rice Leafhopper Collected at Nakagawara. As to the method:
as §1, §2

For data set [5], the system named is diamond back moth. Put plainly: Test 4: Effect on Diamond Back Moth. The settings on record: Plutella, third-instar larvae, 24 hours, read-out: Mortality (%). The format is in vivo. The procedure: as §1
Cabbage leaves were spread in a plastic cup, and 10 third-instar larvae of diamond back moth were set free in the cup.
A chemical dilution having a concentration of 100 or 20 ppm, prepared in the same manner as described in Test 1, was applied from an applicator at a rate of 3 ml per cup.
After scattering of the chemical dilution, the cup was covered, and after 24 hours, the numbers of killed and living larvae were counted and the mortality was calculated. The test was made on three cups and the average value was calculated.

As usually defined, the mortality is the share of the test organisms that died. For orientation: LD50 means the dose expected to kill half of the subjects tested. Read a high LD50 as a less toxic substance. Turning to `CC(C)(COCc1cccc(Oc2ccccc2)c1)c1ccc(C#N)cc1` [Compound 54, 3-Phenoxybenzyl 2-(4-cyanophenyl)-2-methylpropyl ether], in data set [1], the mortality at 20 ppm came out at 100% and the mortality at 100 ppm came out at 100%. In addition, the LD50 at 168 h in data set [2] is above 500 mg/kg.
With `CC(C)(COCc1cccc(Oc2ccc(F)cc2)c1)c1ccc(F)c(Cl)c1` [Compound 58, 3-(4-Fluorophenoxy)benzyl 2-(3-chloro-4-fluorophenyl)-2-methylpropyl ether], the mortality at 20 ppm in data set [3], in data set [1] and in data set [4] was 100% in each case. Also, the mortality at 100 ppm in data set [3], in data set [1] and in data set [4] was 100% each time. This compound also displayed an LD50 at 168 h in data set [2] above 500 mg/kg.
As to `CC(=O)c1ccc(C(C)(C)COCc2cccc(Oc3ccccc3)c2)cc1` [Compound 60, 3-Phenoxybenzyl 2-(4-acetylphenyl)-2-methylpropyl ether], the mortality at 20 ppm came out at 60% in data set [3], 80% in data set [1] and 90% in data set [4]. The mortality at 100 ppm in data set [3], in data set [1] and in data set [4] was 100% in each case. This compound gave an LD50 at 168 h in data set [2] above 500 mg/kg.
Take `CCOc1ccc(C(C)(C)COCc2cccc(Oc3ccc(Br)cc3)c2)cc1` [Compound 66, 3-(4-Bromophenoxy)benzyl 2-(4-ethoxyphenyl)-2-methylpropyl ether]: the mortality at 20 ppm in data set [3] was found to be 100%; in data set [5], 60%; in data set [1] it was 100%; in data set [4], 100%. Further, the mortality at 100 ppm in data set [3], in data set [5], in data set [1] and in data set [4] was 100% in each case. In data set [2], the LD50 at 168 h was above 500 mg/kg.
Turning to `CCC(C)Oc1ccc(C(C)(C)COCc2cccc(Oc3ccccc3)c2)cc1` (stereo not shown) [Compound 70, 3-Phenoxybenzyl 2-[4-(sec-butoxy)phenyl]-2-methylpropyl ether], the results for the mortality at 20 ppm in data set [3], in data set [1] and in data set [4] were 100%, 90% and 100%, respectively. For the same compound, the mortality at 100 ppm in data set [3], in data set [1] and in data set [4] was 100% throughout. Also, in data set [2], the LD50 at 168 h is above 500 mg/kg.
`Cc1ccc2cc(C(C)(C)COCc3cccc(Oc4ccccc4)c3)ccc2c1` [Compound 71, 3-Phenoxybenzyl 2-(6-methyl-2-naphthyl)-2-methylpropyl ether]: the mortality at 20 ppm was 100% in data set [3], 60% in data set [5] and 100% in data set [4]. In addition, the mortality at 100 ppm in data set [3], in data set [5] and in data set [4] was 100% throughout. This compound also returned an LD50 at 168 h in data set [2] above 500 mg/kg.
`CC(C)(COCc1cccc(Oc2ccccc2)c1)c1ccc(F)c(Cl)c1` [Compound 75]: in data set [1], the mortality at 20 ppm worked out at 80% and the mortality at 100 ppm stood at 100%. The same compound returned an LD50 at 168 h in data set [2] above 500 mg/kg.
Take `CC(C)(COCc1cccc(Oc2ccccc2)c1)c1ccc(Oc2ccccc2)cc1` [Compound 76, 3-Phenoxybenzyl 2-(4-phenoxyphenyl)-2-methylpropyl ether]: in data set [1], the mortality at 20 ppm amounted to 90% and the mortality at 100 ppm turned out to be 100%. In data set [2], this compound had an LD50 at 168 h above 500 mg/kg.
In data set [1], `CCOCOc1ccc(C(C)(C)COCc2cccc(Oc3ccccc3)c2)cc1` [Compound 81, 3-Phenoxybenzyl 2-(4-ethoxymethoxyphenyl)-2-methylpropyl ether] displayed a mortality at 20 ppm of 90% and a mortality at 100 ppm of 100%. Besides, the LD50 at 168 h in data set [2] was above 500 mg/kg.
In the same order, the values of `COCOc1ccc(C(C)(C)COCc2cccc(Oc3ccccc3)c2)cc1` [Compound 83, 3-Phenoxybenzyl 2-(4-methoxymethoxyphenyl)-2-methylpropyl ether] are 100%, 100% and above 500 mg/kg.
In the case of `CCOC(C)c1ccc(C(C)(C)COCc2cccc(Oc3ccccc3)c2)cc1` (stereo not shown) [Compound 84, 3-Phenoxybenzyl 2-[4-(1-ethoxyethyl)phenyl]-2-methylpropyl ether], in data set [5], the mortality at 20 ppm stood at 60% and the mortality at 100 ppm was determined as 100%. This compound gave an LD50 at 168 h in data set [2] above 500 mg/kg.
For the compound `CCOC(=O)c1ccc(C(C)(C)COCc2cccc(Oc3ccccc3)c2)cc1` [Compound 85, 3-Phenoxybenzyl 2-(4-ethoxycarbonylphenyl)-2-methylpropyl ether], the figures for the mortality at 20 ppm in data set [3], in data set [1] and in data set [4] were 100%, 80% and 100%, respectively. Also, the mortality at 100 ppm in data set [3], in data set [1] and in data set [4] was 100% each time. This compound came in with an LD50 at 168 h in data set [2] above 500 mg/kg.
In data set [1], `CC(C)(COCc1cccc(Oc2ccccc2)c1)c1ccc(OC(Cl)=C(Cl)Cl)cc1` [Compound 92, 3-Phenoxybenzyl 2-[(1,2,2-trichlorovinyloxy)phenyl]-2-methylpropyl ether] registered a mortality at 20 ppm of 90% and a mortality at 100 ppm of 100%. This compound also gave an LD50 at 168 h in data set [2] above 500 mg/kg.
With `CCOc1ccc(Oc2cccc(COCC(C)(C)c3ccc(Cl)cc3)c2)cc1` [Compound 94, 3-(4-Ethoxyphenoxy)benzyl 2-(4-chlorophenyl)-2-methylpropyl ether], the mortality at 20 ppm came to 100% in data set [3], 80% in data set [5], 100% in data set [1] and 100% in data set [4]. Besides, the mortality at 100 ppm in data set [3], in data set [5], in data set [1] and in data set [4] was 100% in each case. The same compound yielded an LD50 at 168 h in data set [2] above 500 mg/kg.
On to `CCOc1c(C)cc(C(C)(C)COCc2cccc(Oc3ccccc3)c2)cc1C` [Compound 97, 3-Phenoxybenzyl 2-(4-ethoxy-3,5-dimethylphenyl)-2-methylpropyl ether], for which the mortality at 20 ppm in data set [3], in data set [1] and in data set [4] was 100% each time. Further, the mortality at 100 ppm in data set [3], in data set [1] and in data set [4] was 100% throughout. The compound further showed an LD50 at 168 h in data set [2] above 500 mg/kg.
With `CCOc1ccc(C(C)(C)COCc2cccc(Oc3ccccc3)c2)cc1OC` [Compound 99, 3-Phenoxybenzyl-2-(4-ethoxy-3-methoxyphenyl)-2-methylpropyl ether], in data set [5], the mortality at 20 ppm came out at 80% and the mortality at 100 ppm is 100%. Besides, in data set [1], the mortality at 20 ppm is 100% and the mortality at 100 ppm was 100%. Further, the LD50 at 168 h in data set [2] was above 500 mg/kg.
For `CCSc1ccc(C(C)(C)COCc2cccc(Oc3ccccc3)c2)cc1` [Compound 100, 3-Phenoxybenzyl 2-(4-ethylthiophenyl)-2-methylpropyl ether], the mortality at 20 ppm in data set [3] amounted to 80%; in data set [1], 80%; in data set [4], 95%. The mortality at 100 ppm in data set [3], in data set [1] and in data set [4] was 100% throughout. Moreover, in data set [2], the LD50 at 168 h was above 500 mg/kg.
Consider `CC(C)(COCc1cccc(Oc2ccccc2)c1)c1ccc(OCCCl)cc1` [Compound 108, 3-Phenoxybenzyl 2-[4-(2-chloroethoxy)phenyl]-2-methylpropyl ether], for which the mortality at 20 ppm in data set [3] amounted to 95%; in data set [1], 100%; in data set [4], 100%. In addition, the mortality at 100 ppm in data set [3], in data set [1] and in data set [4] was 100% in each case. The compound also registered an LD50 at 168 h in data set [2] above 500 mg/kg.
